Data on two compounds can be found in patent US8394367B2, “IL6R/IL6 chimera for therapy of chemotherapy-induced peripheral neuropathy” (Yeda Research and Development Co., Ltd., priority 2004, dated 2013).

Entries after “also recorded” stand apart in the source; their conditions may differ.

Data set [1] has as its system peripheral neuropathy caused by carboplatin/paclitaxel. The conditions noted are these: at the doses and regime tested; cited from earlier work.
Data set [2] concerns dorsal root ganglia (DRG) cultures. The experiment in a line: Protection of the axonal network in DRG cultures intoxicated by vincristine (βIII-tubulin immunostaining). The format is cell-based, mouse. The settings on record: 10 nM vincristine for 2 days; βIII-tubulin staining. As to the method:
(§1) IL-6R/IL-6 chimera (Chebath et al, 1997) was used to explore prevention against vincristine intoxication in vitro. For this purpose, cultures of dorsal root ganglia (DRG) from mouse embryos (day E17) in which neuronal outgrowth was stimulated by Nerve Growth Factor (NGF), were subsequently exposed to 10 nM vincristine which induces a progressive axonal degeneration process (Wang et al., J Neuropathol Exp Neurol. 2000 July; 59(7):599-606). […] Neurodegeneration was further examined by monitoring the proteolytic activation of caspase-3, which denotes the early stages of apoptosis in various neuropathies (Russell et al, Neurobiol Dis. 1999 October; 6(5):347-63).
(§2) DRGs were prepared as detailed before (Haggiag et al, 1999, 2001) from embryos of (C57BL/6×129Sv) F1 mice. In some experiments, corresponding IL-6−/− mutant mice were used (Mendel et al, 1998). The DRGs were seeded onto glass coverslips (precoated with a solution of 20 μg/ml poly-D-lysine, 250 μg/ml fibronectin), which were placed in 12-well Costar plates. The regular culture medium was 0.5 ml DMEM/F12 medium with 1% N2 supplement, 10% fetal bovine serum, 2% horse serum, 1.4 mM glutamine (all from Gibco/Invitrogen) and 50 ng/ml NGF (2.5S; Alomone Labs, Jerusalem, Israel). Cultures were maintained at 37° C., 5% CO2 and medium replaced every third day. […]

The test system of data set [3] is activated caspase-3 in DRG cultures. The experiment in a line: Caspase-3 activation (apoptosis) in DRG cultures treated with vincristine. The format is cell-based, mouse. The conditions noted are these: 10 nM vincristine for 5 days. On the procedure: as §1, §2
Data set [4] concerns dorsal root ganglia (DRG) cultures. The experiment in a line: Regeneration of DRG cultures after vincristine removal (βIII-tubulin and GFAP immunostaining). The settings on record: 5 nM vincristine day 5 to 10, 6 more days without drug; IL-6-/- DRG. The format is cell-based, mouse.
Excerpt: I further investigated whether the IL-6R/IL-6 could have neural regenerative effects by adding IL-6R/IL-6 after the action of vincristine had taken place. Cultures in which the axonal network was formed in the presence of NGF for 5 days were either continued for another 11 days without or with IL-6R/IL-6 (Panel A and B, respectively), or treated for 5 days by vincristine at which time vincristine was removed and culture continued for 6 more days (panels C-F). […] These experiments indicate that IL-6R/IL-6 chimera promotes regeneration of neural and glial cells when added after exposure to the chemotherapeutic agent.
as §2

In the case of “LIF: recombinant leukemia inhibitor factor (LIF), another gp130 activator”, the “Prevention of CIPN in clinical trials” value in data set [1] was “ineffective”.
For the compound `CC[C@]1(O)C[C@H]2CN(CCc3c([nH]c4ccccc34)[C@@](C(=O)OC)(c3cc4c(cc3OC)N(C=O)[C@H]3[C@@](O)(C(=O)OC)[C@H](OC(C)=O)[C@]5(CC)C=CCN6CC[C@]43[C@@H]65)C2)C1` [vincristine], the “Loss of axons in DRG outgrowth caused by vincristine” value in data set [2] is given as “considerable loss of axons; also recorded: extensive neurodegeneration”. In addition, the “Caspase-3 activation caused by vincristine” value in data set [3] was “Positive reaction to antibodies against activated caspase-3”. The “Degeneration of the axonal network 6 days after vincristine removal” value in data set [4] is given as “extensive degeneration of the axonal network was still observed; also recorded: extensive degeneration of the axonal network was still present”.
